Assay results as given in PubChem BioAssay AID330 (DTP/NCI, 2004).
Where “and” joins values, the source holds several entries; their conditions need not be identical. Identical values can stand only once. Inconclusive results and toxic doses are left out. How the source made its calls: active means survival T/C of 150% or more; inactive means T/C below 125% in these data.

Tested on: P388 leukemia ip, CD2F1 mice, survival T/C
Test: NCI In Vivo Anticancer Drug Screen. Data for tumor model P388 Leukemia (intraperitoneal) in CD2F1 (CDF1) mice
Settings: endpoint: median survival time, higher = longer survival
Method in brief: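 Mice carrying the transplanted tumor received test compound or vehicle. Survival was recorded in each group, and the value is the treated-group measurement divided by that of the vehicle-treated control group.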

[1] = dose: 100.0 mg/kg/injection, schedule: Q04DX003 (ip), vehicle: saline with Tween-80
[2] = dose: 200.0 mg/kg/injection, schedule: Q04DX003 (ip), vehicle: saline with Tween-80
[3] = dose: 400.0 mg/kg/injection, schedule: Q04DX003 (ip), vehicle: saline with Tween-80
[4] = dose: 50.0 mg/kg/injection, schedule: Q01DX005 (ip), vehicle: saline with Tween-80
[5] = dose: 100.0 mg/kg/injection, schedule: Q01DX005 (ip), vehicle: saline with Tween-80
[6] = dose: 50.0 mg/kg/injection, schedule: Q01DX005 (ip), vehicle: Klucel (hydroxypropylcellulose) (HPC)
[7] = dose: 100.0 mg/kg/injection, schedule: Q01DX005 (ip), vehicle: Klucel (hydroxypropylcellulose) (HPC)
[8] = dose: 200.0 mg/kg/injection, schedule: Q01DX005 (ip), vehicle: Klucel (hydroxypropylcellulose) (HPC)
[9] = dose: 100.0 mg/kg/injection, schedule: Q01DX009 (ip), vehicle: saline with Tween-80
[10] = dose: 200.0 mg/kg/injection, schedule: Q01DX009 (ip), vehicle: saline with Tween-80
[11] = dose: 200.0 mg/kg/injection, schedule: Q01DX005 (ip), vehicle: saline with Tween-80

Measured: T/C

CC(C)c1ccc(C(=O)CCCCl)cc1
inactive: [1] 109 % of control | [2] 100 % of control | [3] 104 % of control

O=C(c1ccccc1)c1ccc([N+](=O)[O-])cc1
inactive: dose: 3.13 mg/kg/injection, schedule: Q01DX009 (ip), vehicle: saline with Tween-80 97 % of control | dose: 6.25 mg/kg/injection, schedule: Q01DX009 (ip), vehicle: saline with Tween-80 95 % of control | dose: 12.5 mg/kg/injection, schedule: Q01DX009 (ip), vehicle: saline with Tween-80 91 % of control | dose: 25.0 mg/kg/injection, schedule: Q01DX009 (ip), vehicle: saline with Tween-80 91 % of control | dose: 50.0 mg/kg/injection, schedule: Q04DX003 (ip), vehicle: saline with Tween-80 95 % of control | [1] 100 % of control | [2] 109 % of control

Cc1ccc(N(C)c2cc(=O)n(C)c(=O)[nH]2)cc1C
inactive: [4] 94 % of control | [5] 103 % of control

O=C1NC(Cc2c[nH]c3ccccc23)C(=O)N2CCCC12 (stereo not given)
inactive: [6] 100 % of control | [7] 104 % of control | [8] 97 % of control

CCCCN(CCCC)CCC(O)c1cc(C(F)(F)F)nc2c(C(F)(F)F)cccc12 (stereo not given)
inactive: dose: 50.0 mg/kg/injection, schedule: Q01DX009 (ip), vehicle: saline with Tween-80 104 % of control | [9] 114 % of control | [10] 100 % of control

Cc1ccc(OCC2CO2)c(Br)c1 (stereo not given)
inactive: dose: 25.0 mg/kg/injection, schedule: Q01DX005 (ip), vehicle: saline with Tween-80 101 % of control and 104 % of control | [4] 100 % of control and 106 % of control (2×) | [5] 101 % of control and 96 % of control | [11] 101 % of control and 105 % of control and 111 % of control

C1CN2CCO[Si](CC[Si]34OCCN(CCO3)CCO4)(O1)OCC2
inactive: [6] 106 % of control | [7] 113 % of control | [8] 94 % of control

COc1cc2c(cc1C(C)c1cc(C(C)(C)C)c(O)c(C(C)(C)C)c1)OCO2 (stereo not given)
inactive: [4] 104 % of control | [5] 100 % of control | [11] 94 % of control

CN1CCC(/C=C/c2ccc(Cl)c(Cl)c2)CN1 (stereo not given) (tested in a mixture with another compound)
inactive: dose: 25.0 mg/kg/injection, schedule: Q01DX001 (ip), vehicle: saline 100 % of control and 95 % of control | dose: 50.0 mg/kg/injection, schedule: Q01DX001 (ip), vehicle: saline 100 % of control | dose: 100.0 mg/kg/injection, schedule: Q01DX001 (ip), vehicle: saline 104 % of control and 93 % of control | dose: 100.0 mg/kg/injection, schedule: Q01DX001 (ip), vehicle: suspension in saline 116 % of control

Cc1nc(Nc2ccc(F)cc2)c2c(C)c(Cc3ccccc3)[nH]c2n1
inactive: [6] 88 % of control | [7] 89 % of control | [8] 94 % of control

CC(=O)Nc1ccc(Nc2ccc(NCCO)c3c2C(=O)c2c(O)ccc(O)c2C3=O)cc1
inactive: dose: 25.0 mg/kg/injection, schedule: Q04DX002 (ip), vehicle: saline with Tween-80 96 % of control | dose: 50.0 mg/kg/injection, schedule: Q04DX002 (ip), vehicle: saline with Tween-80 96 % of control | dose: 100.0 mg/kg/injection, schedule: Q04DX002 (ip), vehicle: saline with Tween-80 100 % of control | dose: 200.0 mg/kg/injection, schedule: Q04DX002 (ip), vehicle: saline with Tween-80 100 % of control

COC1=C(OC)C(=O)C(N2CCCCC2)=C(CO)C1=O
inactive: dose: 60.0 mg/kg/injection, schedule: Q01DX005 (ip), vehicle: saline + Tween-80 + alcohol 88 % of control | dose: 120.0 mg/kg/injection, schedule: Q01DX005 (ip), vehicle: saline + Tween-80 + alcohol 94 % of control | dose: 240.0 mg/kg/injection, schedule: Q01DX005 (ip), vehicle: saline + Tween-80 + alcohol 107 % of control

COc1ccc(/C=C2/Oc3c(OC)c(OC)cc(OC)c3C2=O)cc1
inactive: [4] 102 % of control | [5] 98 % of control | [11] 98 % of control

Nc1[nH]c(=S)nc2nc[nH]c12
inactive: dose: 6.25 mg/kg/injection, schedule: Q01DX005 (ip), vehicle: saline with Tween-80 103 % of control | dose: 12.5 mg/kg/injection, schedule: Q01DX005 (ip), vehicle: saline with Tween-80 100 % of control

CC1C[C@@H]2[C@H]([C@@H](O)C[C@@]3(C)[C@H]2CC[C@]3(O)C(=O)CF)[C@@]2(C)CCC(=O)C=C12 (stereo not given in full)
inactive: [9] 100 % of control | [1] 109 % of control | [10] 95 % of control | [2] 109 % of control | [3] 100 % of control

Nc1nc2c([nH]c(=O)n2C2OC(CO)C(O)C2O)c(=O)[nH]1 (stereo not given)
inactive: dose: 50.0 mg/kg/injection, schedule: Q01DX005 (ip), vehicle: saline 109 % of control | dose: 100.0 mg/kg/injection, schedule: Q01DX005 (ip), vehicle: saline 110 % of control | dose: 200.0 mg/kg/injection, schedule: Q01DX005 (ip), vehicle: saline 112 % of control

CC1OC(O[C@H]2/C=C/C=C/C=C/C=C/C=C/C=C/C=C/[C@H](C)[C@@H](O)[C@@H](C)[C@H](C)OC(=O)C[C@H](O)C[C@H](O)CC[C@@H](O)[C@H](O)C[C@H](O)C[C@]3(O)C[C@H](O)[C@@H](C(=O)O)[C@H](C2)O3)C(O)C(N)C1O (stereo not given in full)
inactive: dose: 1.0 mg/kg/injection, schedule: Q01DX009 (ip), vehicle: saline 90 % of control and 95 % of control | dose: 2.0 mg/kg/injection, schedule: Q01DX009 (ip), vehicle: saline 119 % of control and 90 % of control | dose: 4.0 mg/kg/injection, schedule: Q01DX009 (ip), vehicle: saline 98 % of control and 102 % of control and 105 % of control | dose: 8.0 mg/kg/injection, schedule: Q01DX009 (ip), vehicle: saline 100 % of control and 106 % of control and 87 % of control | dose: 16.0 mg/kg/injection, schedule: Q01DX009 (ip), vehicle: saline 122 % of control and 94 % of control

O=C(/C=C/c1ccc(Cl)cc1)c1ccccc(=O)c1O
inactive: [6] 101 % of control | [7] 100 % of control

COc1cccc(-c2ccncc2)c1
inactive: [4] 102 % of control | [5] 93 % of control | [11] 93 % of control

C[CH2][Sn]([Br])([CH2]C)[c]1c(CN(C)C)cccc1CN(C)C
inactive: dose: 3.12 mg/kg/injection, schedule: Q01DX009 (ip), vehicle: saline 99 % of control and 100 % of control | dose: 6.25 mg/kg/injection, schedule: Q01DX009 (ip), vehicle: saline 104 % of control and 106 % of control and 95 % of control | dose: 12.5 mg/kg/injection, schedule: Q01DX009 (ip), vehicle: saline 100 % of control and 95 % of control | dose: 25.0 mg/kg/injection, schedule: Q01DX009 (ip), vehicle: saline 104 % of control and 95 % of control

CN1CCC/C1=C/C(=O)c1ccccc1[N+](=O)[O-]
inactive: dose: 100.0 mg/kg/injection, schedule: Q04DX002 (ip), vehicle: Klucel (hydroxypropylcellulose) (HPC) 102 % of control | dose: 200.0 mg/kg/injection, schedule: Q04DX002 (ip), vehicle: Klucel (hydroxypropylcellulose) (HPC) 99 % of control | dose: 400.0 mg/kg/injection, schedule: Q04DX002 (ip), vehicle: Klucel (hydroxypropylcellulose) (HPC) 100 % of control

C=C1C(=O)OC2/C=C(\C)CC/C=C(/C=O)C(OC)C(OC(=O)C(C)C)C12 (stereo not given)
inactive: dose: 6.25 mg/kg/injection, schedule: Q01DX009 (ip), vehicle: Klucel (hydroxypropylcellulose) (HPC) 106 % of control | dose: 12.5 mg/kg/injection, schedule: Q01DX009 (ip), vehicle: Klucel (hydroxypropylcellulose) (HPC) 97 % of control | dose: 25.0 mg/kg/injection, schedule: Q01DX009 (ip), vehicle: Klucel (hydroxypropylcellulose) (HPC) 100 % of control

CCOc1nc2ccccc2nc1OCC
inactive: [6] 95 % of control | [7] 104 % of control

O=S1(=O)c2ccccc2N(c2ccccc2)C2=NCCN21
inactive: dose: 60.0 mg/kg/injection, schedule: Q01DX005 (ip), vehicle: saline with Tween-80 91 % of control | dose: 120.0 mg/kg/injection, schedule: Q01DX005 (ip), vehicle: saline with Tween-80 99 % of control | dose: 240.0 mg/kg/injection, schedule: Q01DX005 (ip), vehicle: saline with Tween-80 97 % of control
